Counter-ions that a name gives are not always drawn.

The text below walks through data of patent US20250326748A1, “COMPOUNDS AND METHODS FOR MODULATING SPLICING” (REMIX THERAPEUTICS INC., priority 2022, published 2025).

The test system of one series is SMN2 mRNA. As to the kind of experiment: Splicing RT-qPCR panel, SMN2 canonical junction (CJ) mRNA. It counts as cell-based, human. The settings on record: Homo sapiens, read-out: SMN2 CJ (decrease in CJ mRNA levels, IC50). A digest of the protocol: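 A673 cells (DMEM, 10% FBS) or K562 cells (IMDM, 10% FBS) treated 24 h at 37 °C with an 11-point 3-fold dilution, top 10 uM, DMSO ≤0.25%. Canonical-junction mRNA quantified in lysates by RT-qPCR, normalised to GAPDH, GUSB or PPIA and to DMSO (2^−ΔΔCt), then converted to % response.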

Another series has as its system HiBiT-tagged MYB protein. Description: HiBiT protein abundance assay, MYB (K562 HiBiT knock-in). The class given is cell-based, human. Conditions: HiBiT knock-in cells, 24 hours. An outline of the steps: (§1)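 Endogenously HiBiT-tagged K562 knock-in lines treated 24 h at 37 °C with 10-point 3-fold dilutions (top 10 μM final, DMSO ≤0.25%) in IMDM+1% FBS. Lytic Nano-Glo luminescence normalized to DMSO and unmodified K562 controls; four-parameter fit gives 50%-abundance concentration (IC50).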

The subject of a further series is HiBiT-tagged HTT protein. As to the kind of experiment: HiBiT protein abundance assay, HTT (K562 HiBiT knock-in). It counts as cell-based, human. Conditions: HiBiT knock-in cells, 24 hours. A digest of the protocol: as §1
The next series concerns Target C. Description: HiBiT protein abundance assay, Target C (K562 HiBiT knock-in). Conditions: HiBiT knock-in cells, 24 hours. The class given is cell-based, human. An outline of the steps:
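K562 HiBiT knock-in cells (10000/well) in IMDM + 1% FBS were treated for 24 h at 37° C. with a 10-point 3-fold dilution series (top 10 μM final), with DMSO ≤0.25%. Unmodified K562 served as baseline. HiBiT lytic luminescence was normalized to controls, and IC50 was interpolated at 50% from a four-parameter fit.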

For the next series, the system named is K562 cells. Description: Cell viability, Cell Titer Glo 2.0 assay, K562. Conditions: 72 hours.

On to `Cc1c(O)c(-c2ccc3c(C(F)(F)F)c(N4CCNCC4)cnc3n2)cc2cn(C)nc12` [Compound 302, 2,7-dimethyl-5-[6-(piperazin-1-yl)-5-(trifluoromethyl)-1,8-naphthyridin-2-yl]indazol-6-ol], for which the IC50 in the series on SMN2 mRNA was in the range of 0.1 to 1 µM; in the series with HiBiT-tagged MYB protein, 0.1 to 1 µM; in the series on HiBiT-tagged HTT protein, 1 to 10 µM; with Target C, 1 to 10 µM. Also, the “Effect on Cell Viability, K562” value with K562 cells was “B (100-1000 nM)”.

As to `CN1CCC[C@@H]2CN(c3cnc4nc(-c5cc6cn(C)nc6c(F)c5O)cc(Cl)c4c3)C[C@@H]21` [Compound 303], the IC50 with SMN2 mRNA is under 0.1 µM; in the series with HiBiT-tagged MYB protein it was 0.1 to 1 µM; in the series with HiBiT-tagged HTT protein, 0.1 to 1 µM; in the series on Target C it was 1 to 10 µM. The “Effect on Cell Viability, K562” value with K562 cells is “B (100-1000 nM)”.

`CN1CCC[C@H]2CN(c3cnc4nc(-c5cc6cn(C)nc6c(F)c5O)cc(Cl)c4c3)C[C@H]21` [Compound 304]: the IC50 in the series on SMN2 mRNA was under 0.1 µM; in the series with HiBiT-tagged MYB protein, 0.1 to 1 µM; with HiBiT-tagged HTT protein, 1 to 10 µM; in the series on Target C, over 10 µM. Further, the “Effect on Cell Viability, K562” value in the series with K562 cells is “B (100-1000 nM)”.

As to `C[C@@H]1CN(c2cnc3nc(-c4cc5cn(C)nc5c(F)c4O)cc(C4CC4)c3c2)C[C@H](C)N1` [Compound 305, 5-{4-cyclopropyl-6-[(3R,5S)-3,5-dimethylpiperazin-1-yl]-1,8-naphthyridin-2-yl}-7-fluoro-2-methylindazol-6-ol], the IC50 in the series with SMN2 mRNA was under 0.1 µM; in the series on HiBiT-tagged MYB protein, 0.1 to 1 µM; in the series with HiBiT-tagged HTT protein, 1 to 10 µM; in the series on Target C, 1 to 10 µM. For the same molecule, the “Effect on Cell Viability, K562” value in the series on K562 cells is recorded as “C (1000-9999 nM)”.

In the case of `CCN[C@@H]1CCN(c2cnc3nc(-c4cc5cn(C)nc5cc4O)ccc3c2)C1` [Compound 310, 5-{6-[(3R)-3-(ethylamino)468pyrrolidine-1-yl]-1,8-naphthyridin-2-yl}-2-methylindazol-6-ol hydrochloride], the IC50 with SMN2 mRNA is under 0.1 µM; in the series on HiBiT-tagged MYB protein it was under 0.1 µM; in the series on HiBiT-tagged HTT protein, 0.1 to 1 µM; in the series on Target C, 0.1 to 1 µM. The “Effect on Cell Viability, K562” value with K562 cells is given as “B (100-1000 nM)”.

As to `CCN[C@H]1CCN(c2cnc3nc(-c4cc5cn(C)nc5cc4O)ccc3c2)C1` [Compound 311, 5-{6-[(3S)-3-(ethylamino)pyrrolidin-1-yl]-1,8-naphthyridin-2-yl}-2-methylindazol-6-ol hydrochloride], the half-maximal inhibitory concentration (IC50) with SMN2 mRNA was under 0.1 µM; in the series with HiBiT-tagged MYB protein, 0.1 to 1 µM; in the series with HiBiT-tagged HTT protein, 0.1 to 1 µM; in the series on Target C it was 0.1 to 1 µM. In addition, in the series on K562 cells, the “Effect on Cell Viability, K562” value is given as “B (100-1000 nM)”.

On to `Cn1cc2cc(-c3ccc4cc(N5CC[C@@H](NCC6CC6)C5)cnc4n3)c(O)cc2n1` [Compound 313], for which the IC50 with SMN2 mRNA was under 0.1 µM; in the series with HiBiT-tagged MYB protein, 0.1 to 1 µM; in the series on HiBiT-tagged HTT protein it was 0.1 to 1 µM; in the series on Target C, 0.1 to 1 µM. Further, the “Effect on Cell Viability, K562” value with K562 cells is given as “B (100-1000 nM)”.

Regarding `Cn1cc2cc(-c3ccc4cc(N5CC[C@H](NCC6CC6)C5)cnc4n3)c(O)cc2n1` [Compound 314], the IC50 was under 0.1 µM in the series on SMN2 mRNA, 0.1 to 1 µM in the series on HiBiT-tagged MYB protein, 0.1 to 1 µM in the series with HiBiT-tagged HTT protein and 0.1 to 1 µM in the series on Target C. For the same molecule, the “Effect on Cell Viability, K562” value with K562 cells is on record as “B (100-1000 nM)”.

Consider `CN(C)C1CCN(c2cnc3nc(-c4cc5cn(C)nc5cc4O)ccc3c2)CC1` [Compound 316], for which the concentration for half-maximal inhibition (IC50) is under 0.1 µM with SMN2 mRNA, 0.1 to 1 µM with HiBiT-tagged MYB protein, 1 to 10 µM in the series with HiBiT-tagged HTT protein and 1 to 10 µM in the series on Target C. Besides, the “Effect on Cell Viability, K562” value in the series on K562 cells is “B (100-1000 nM)”.

Consider `CCN[C@@H]1CCN(c2cnc3nc(-c4cc5cn(C)nc5cc4O)cc(Cl)c3c2)C1` [Compound 317], for which the IC50 in the series on SMN2 mRNA, in the series with HiBiT-tagged MYB protein, with HiBiT-tagged HTT protein and in the series with Target C was under 0.1 µM in each case. Besides, in the series on K562 cells, the “Effect on Cell Viability, K562” value is “A (<100 nM)”.

Turning to `CCN[C@H]1CCN(c2cnc3nc(-c4cc5cn(C)nc5cc4O)cc(Cl)c3c2)C1` [Compound 318], the IC50 was under 0.1 µM in the series on SMN2 mRNA, under 0.1 µM in the series on HiBiT-tagged MYB protein, 0.1 to 1 µM in the series on HiBiT-tagged HTT protein and 0.1 to 1 µM with Target C. In addition, the “Effect on Cell Viability, K562” value in the series on K562 cells is recorded as “A (<100 nM)”.

Consider `C[C@@H]1CN(c2cnc3nc(-c4ccc5nn(C)cc5c4)cc(Cl)c3c2)C[C@H](C)N1` [Compound 320, 4-chloro-6-[(3R,5S)-3,5-dimethylpiperazin-1-yl]-2-(2-methylindazol-5-yl)-1,8-naphthyridine], for which the IC50 was under 0.1 µM in the series with SMN2 mRNA, 1 to 10 µM in the series with HiBiT-tagged MYB protein, 1 to 10 µM in the series with HiBiT-tagged HTT protein and over 10 µM in the series with Target C. In addition, in the series on K562 cells, the “Effect on Cell Viability, K562” value was “C (1000-9999 nM)”.

In the case of `C[C@@H]1CN(c2cnc3nc(-c4cc(C#N)c5nn(C)cc5c4)cc(Cl)c3c2)C[C@H](C)N1` [Compound 325, 5-(4-chloro-6-((3R,5S)-3,5-dimethylpiperazin-1-yl)-1,8-naphthyridin-2-yl)-2-methyl-2H-indazole-7-carbonitrile 2,2,2-trifluoroacetate], the IC50 in the series on SMN2 mRNA was under 0.1 µM; in the series with HiBiT-tagged MYB protein, 0.1 to 1 µM; with HiBiT-tagged HTT protein it was 1 to 10 µM; with Target C, over 10 µM. In addition, the “Effect on Cell Viability, K562” value in the series with K562 cells was “C (1000-9999 nM)”.

Regarding `Cc1cn2nc(-c3ccc4cc(N5C[C@@H](C)N[C@@H](C)C5)cnc4n3)cc(C)c2n1` [Compound 330], the IC50 is under 0.1 µM in the series with SMN2 mRNA, 0.1 to 1 µM with HiBiT-tagged MYB protein, 0.1 to 1 µM in the series with HiBiT-tagged HTT protein and 0.1 to 1 µM in the series with Target C. The “Effect on Cell Viability, K562” value in the series with K562 cells was “B (100-1000 nM)”.

For the molecule `Cc1cn2nc(-c3cc(Cl)c4cc(N5C[C@@H](C)N[C@@H](C)C5)cnc4n3)cc(C)c2n1` [Compound 335, 4-chloro-2-{2,8-dimethylimidazo[1,2-b]478pyridazine-6-yl}-6-[(3R,5S)-3,5-dimethylpiperazin-1-yl]-1,8-naphthyridine], the half-inhibitory concentration (IC50) in the series on SMN2 mRNA was under 0.1 µM; in the series with HiBiT-tagged MYB protein it was 0.1 to 1 µM; with HiBiT-tagged HTT protein it was 0.1 to 1 µM; in the series with Target C it was 1 to 10 µM. Also, the “Effect on Cell Viability, K562” value with K562 cells is “B (100-1000 nM)”.

As for `CN[C@H]1CCN(c2cnc3nc(-c4cc(C)c5nc(C)cn5n4)cc(Cl)c3c2)C1` [Compound 340], the IC50 was under 0.1 µM in the series on SMN2 mRNA, under 0.1 µM in the series on HiBiT-tagged MYB protein, under 0.1 µM in the series on HiBiT-tagged HTT protein and 0.1 to 1 µM with Target C. The “Effect on Cell Viability, K562” value with K562 cells is “B (100-1000 nM)”.

Consider `CN[C@@H]1CCN(c2cnc3nc(-c4cc(C)c5nc(C)cn5n4)cc(Cl)c3c2)C1` [Compound 341], for which the IC50 with SMN2 mRNA, in the series with HiBiT-tagged MYB protein, with HiBiT-tagged HTT protein and in the series with Target C was under 0.1 µM in each case. Besides, in the series with K562 cells, the “Effect on Cell Viability, K562” value is reported as “A (<100 nM)”.

With `C[C@@H]1CN(c2cnc3nc(-c4cc5cn(C)nc5cc4O)ccc3c2)C[C@H](C)N1` [Compound 343], the half-maximal inhibitory concentration (IC50) is under 0.1 µM with SMN2 mRNA, 0.1 to 1 µM with HiBiT-tagged MYB protein, 1 to 10 µM in the series on HiBiT-tagged HTT protein and 1 to 10 µM in the series on Target C. Also, the “Effect on Cell Viability, K562” value in the series on K562 cells is reported as “B (100-1000 nM)”.

For `Cc1cn2nc(-c3cc(Cl)c4cc(N5CCC(N(C)C)CC5)cnc4n3)cc(C)c2n1` [Compound 348], the IC50 was under 0.1 µM in the series on SMN2 mRNA, under 0.1 µM in the series on HiBiT-tagged MYB protein, 0.1 to 1 µM with HiBiT-tagged HTT protein and 0.1 to 1 µM in the series on Target C. In addition, in the series with K562 cells, the “Effect on Cell Viability, K562” value is given as “B (100-1000 nM)”.

Take `Cc1cn2nc(-c3cc(Cl)c4cc(N5CCC(N6CCC6)CC5)cnc4n3)cc(C)c2n1` [Compound 349]: the IC50 was under 0.1 µM with SMN2 mRNA, under 0.1 µM with HiBiT-tagged MYB protein, 0.1 to 1 µM with HiBiT-tagged HTT protein and 0.1 to 1 µM in the series on Target C. The “Effect on Cell Viability, K562” value in the series with K562 cells is reported as “B (100-1000 nM)”.

Turning to `Cc1cn2cc(-c3ccc4cc(N5C[C@@H](C)N[C@@H](C)C5)cnc4n3)cc(F)c2n1` [Compound 350], the IC50 with SMN2 mRNA was in the range of 0.1 to 1 µM; in the series with HiBiT-tagged MYB protein it was 0.1 to 1 µM; in the series with HiBiT-tagged HTT protein it was 1 to 10 µM; in the series with Target C, 1 to 10 µM. The “Effect on Cell Viability, K562” value with K562 cells is listed as “C (1000-9999 nM)”.
